Patent publication EP0456514A1, “2-Fluoroneplanocin A and its production” (ASAHI KASEI KOGYO KABUSHIKI KAISHA, priority 1990, dated 1991)
In brackets after ≈: the same amount, converted by molar mass.

Key:
[1] = tested on: L5178Y cells; assay: Growth inhibition activity against L5178Y cells; type: cell-based; conditions: for IC50: Mus musculus, L5178Y cells, incubated at 37 °C for 48 hours, cell number by Coulter counter
Procedure: (1) Growth inhibition activity against L5178Y cells:
A solution of each test compound is prepared by dissolving the compound in RRMI 1640 medium containing 10% bovine serum. A cell suspension of L5178Y cells, 1.1× 10⁴ cells/ml, each suspension having a volume of 1.8 ml, is added to each test tube. A solution ( 0.2 ml ) of the test compound hereinabove is added thereto and the medium is tightly sealed and incubated at 37 °C for 48 hours. After incubation, the numberof cells is measured using a Coulter counter and the growth ratio of the cells is determined.

[2] = molecular target: T1, Adenosine deaminase (Bos taurus, UniProt P56658); assay: Resistance to adenosine deaminase (remaining sample measured by HPLC); type: in vitro ADME, Calf; conditions: for Remaining ratio (%) 0 min. / remaining at 0.5 h, 500 µM: 0.5 mM test sample, adenosine deaminase, 0.05 M Tris-HCl buffer (pH 7.2), 25 °C; for remaining at 0.5 h, 500 µM: bovine, 30min., read-out: Remaining ratio (%) 30min.
T1 construct: Adenosine deaminase ( Calf inlestine, 400 U/ml glycerin, Boehringer 102091 ); purchased Boehringer 102091; host or cells: calf intestine (tissue-derived enzyme)
T1 sequence (P56658 1-363): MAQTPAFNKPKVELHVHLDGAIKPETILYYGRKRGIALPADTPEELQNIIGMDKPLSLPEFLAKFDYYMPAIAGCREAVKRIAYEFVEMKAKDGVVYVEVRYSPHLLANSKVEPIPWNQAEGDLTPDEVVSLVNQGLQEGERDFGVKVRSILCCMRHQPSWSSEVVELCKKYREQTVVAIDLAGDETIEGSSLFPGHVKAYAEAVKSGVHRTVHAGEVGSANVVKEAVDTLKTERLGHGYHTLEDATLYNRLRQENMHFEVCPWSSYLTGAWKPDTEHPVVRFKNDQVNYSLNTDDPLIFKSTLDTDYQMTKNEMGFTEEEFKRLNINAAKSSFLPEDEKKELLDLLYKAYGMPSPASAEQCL
Procedure: (2) Resistance to adenosine deaminase:
A solution 0.5 mM of each test sample is prepared by dissolving the test sample in 0.05 M Tris-HCl buffer (pH 7.2). Adenosine deaminase ( Calf inlestine, 400 U/ml glycerin, Boehringer 102091 ) is diluled ten times with 0.05 M Tris-HCl buffer (pH 7.2) to prepare an adenosine deaminase solulion.
0.5 ml of each sample solulion is mixed with 10 µl of adenosine deaminase solution . The mixtures are allowed to stand in a water bath at 25 °C, and 4 µl samples thereof are pipetted off after 0 and 30 minutes. The remaining sample is measured by HPLC under the following conditions. HPLC: Column : Supersher RP-18-4 Eluent : 15% methanol Flow rate : 1.0 ml/min. Temperature : 50°C

[3] = Single administration toxicity in mice; type: in vivo; conditions: 10 mg/kg, intra peritoneally in mice
Procedure: 2 - Fluoroneplanocin A can be applied for an anti-neoplastic agent. Amount of dosage can be determined by considering curative effect, route of administration, ages or body weight of patient, and in general 10 - 500 mg/man/day will be applied. Administration can be done by perorally or parenterally, for example intravenous injection or drop infusion or intramuscular administration.

Row | SMILES | IC50 [1] | growth inhibitory activity against L5178Y cells as compared with that of known neplanocin A ([1]; relative to neplanocin A) | Remaining ratio (%) 0 min. [2] | decomposition by adenosine deaminase ([2]; after 30 minutes of incubation) | remaining at 0.5 h, 500 µM [2] | death [3]
1 | Nc1nc(F)nc2c1ncn2[C@@H]1C=C(CO)[C@@H](O)[C@H]1O [2-Fluoroneplanocin A, 2-fluoroneplanocin A] | 0.06 µg/mL (≈ 0.213 µM) | three times higher levels | 100% | not decomposed | 100% | No death is observed
2 | Nc1ncnc2c1ncn2[C@@H]1C=C(CO)[C@@H](O)[C@H]1O [neplanocin A, Neplanocin A] | 0.2 µg/mL (≈ 0.76 µM) |  | 100% |  | 0% | 
